Laboratory results: paper PMC9241943, “LcCCL28-25, Derived from Piscine Chemokine, Exhibits Antimicrobial Activity against Gram-Negative and Gram-Positive Bacteria In Vitro and In Vivo” (Microbiology Spectrum, 2022)
≈ marks a conversion by molar mass, not a printed value. Residues, ends and D or L forms follow the SMILES beside them.

What was measured:
[1] = tested on: Aeromonas hydrophila ATCC 7966; type: cell-based; settings: ATCC 7966, 2 h
Procedure: (§1) The MIC assays were performed as previously described ([43]). Briefly, peptides were plated in a 2-fold dilution series (50 μL/well) of Mueller-Hinton broth (MHB) in Costar 96-well cell culture plates (Corning, NY, USA). Three repeats were set for each concentration. E. coli ATCC 25922, A. hydrophila ATCC 7966, P. aeruginosa PAO1, P. aeruginosa FRD1, S. aureus ATCC 25923, S. agalactiae ATCC 13813, S. pneumoniae ATCC 49619, methicillin-resistant S. aureus ATCC 43300, and methicillin-resistant S. aureus USA300 were cultured in Luria-Bertani (LB) medium, while K. pneumoniae CMCC46117 was cultured in tryptic soy broth (TSB) medium. Incubation was done at 37°C and 150 × g for 12 h. Bacteria were transferred to fresh MHB at a ratio of 1% (vol/vol) and incubated to reach a logarithmic growth phase. Then, 50 μL of a bacterial suspension at 4 × 10^6 CFU/mL was added to each well. […]

[2] = tested on: Klebsiella pneumoniae CMCC46117; type: cell-based; settings: CMCC46117, 2 h
Procedure: as §1

Gram-positive bacteria = test: Time-kill curves (4x MIC); type: cell-based; settings: 4× MIC
Procedure: Consistent with previous reports, time-kill curves of lcCCL28-25 against Gram-negative and Gram-positive bacteria were performed under 4× MIC conditions ([44]). Bacteria were incubated to the logarithmic growth stage. Bacterial cells in the logarithmic growth phase were diluted to achieve log(CFU/mL) values of ~5 to 6 and incubated with lcCCL28-25 for 1, 2, 4, 8, 16, 30, 60, 120, and 240 min. At each time point, 50-μL amounts of the samples were diluted to different concentrations and plated onto agar plates. After overnight incubation, the numbers of colonies on the plates were counted.

[3] = tested on: S. aureus ATCC 25923 cells; test: Scanning and transmission electron microscopy; type: cell-based, Staphylococcus aureus; settings: S. aureus ATCC 25923, 5 μg/mL, 15 min
Procedure: E. coli ATCC 25922 and S. aureus ATCC 25923 cells were cultured and coincubated with or without lcCCL28-25 as described above for fluorescence microscopy.
For scanning electron microscopy (SEM), bacterial cells were fixed with 2.5% glutaraldehyde in PBS (pH 7.35) and attached to 12-mm cover glasses by centrifugation at 75 × g for 6 min using a Cytospin 2 centrifuge (Thermo Fisher Scientific, Schwerte, Germany). Then, cover glasses with attached bacteria were postfixed in 1% aqueous OsO4 for 30 min, dehydrated in a sequence of increasing ethanol concentrations (70%, 80%, and 100%), and critical point dried in a CPD030 (Leica Microsystems, Vienna, Austria). Next, dried samples were mounted on aluminum stubs using conductive carbon tabs, coated with 4 nm of platinum in a CCU-010 sputtering device (Safematic, Bad Ragaz, Switzerland), and imaged by a Supra 50 VP SEM at an acceleration voltage of 2 kV using the in-lens secondary electron detector (Zeiss, Oberkochen, Germany) ([53]).
For transmission electron microscopy (TEM), bacterial cells were obtained by centrifugation after overnight fixation in 2.5% glutaraldehyde (pH 7.35, in PBS) at 4°C. […]

SMILES: CSCC[C@H](NC(=O)[C@H](Cc1c[nH]c2ccccc12)NC(=O)[C@H](CCCCN)NC(=O)[C@@H]1CCCN1C(=O)[C@H](Cc1c[nH]cn1)NC(=O)[C@H](C)N)C(=O)N[C@@H](CCC(=O)O)C(=O)N[C@H](C(=O)N[C@H](C(=O)N[C@@H](CCCNC(=N)N)C(=O)N[C@@H](CO)C(=O)N[C@@H](CCCNC(=N)N)C(=O)N[C@@H](CCC(N)=O)C(=O)N[C@@H](CCCNC(=N)N)C(=O)N[C@@H](CCCCN)C(=O)N[C@@H](CCCCN)C(=O)N[C@@H](CCCCN)C(=O)N[C@@H](Cc1c[nH]cn1)C(=O)N[C@@H](CC(N)=O)C(=O)N[C@@H](CCCCN)C(=O)N[C@@H](CCCNC(=N)N)C(=O)N[C@@H](CCCNC(=N)N)C(=O)N[C@@H](C)C(=O)N[C@H](C(=O)N[C@@H](Cc1ccc(O)cc1)C(=O)O)[C@@H](C)O)C(C)C)C(C)C [lcCCL28-25] (H-AHPKWMEVVRSRQRKKKHNKRRATY-OH; N-terminus and C-terminus assumed)
- MIC [1]: >50.00 µg/mL
- MIC [2]: 25.00 µg/mL (≈ 7.83 µM)
- time for CFU counts to be reduced by more than half (Gram-positive bacteria): ≤ 10 min
- membrane structure (TEM) [3]: significant alterations in membrane structure
